This is an account of results in ChEMBL document CHEMBL5523737, “Novel Jatrophane Diterpenoids from Euphorbia esula Promotes Lipid Clearance by Transcriptional Regulation of PCSK9” (J Med Chem, 2024).

The source made the active and inactive calls. No cut-off for these calls is given here.

In series [1] the test system is HepG2. In words: Induction of LDL uptake in human HepG2 cells incubated for 3 hrs under dark condition by DiI-LDL DMEM staining based fluorescence microplate reader assay. Format: functional, cell-based.
In series [2] the target is Proprotein convertase subtilisin/kexin type 9 (Homo sapiens) (UniProt Q8NBP7). The series is described as follows: Inhibition of PCSK9 transcription in human HepG2 cells by AlphaLISA method. In kind it is cell-based. (In general: In Alpha technology, singlet oxygen from a donor bead excites a nearby acceptor bead.)
For series [3] the target is unchanged. The series is described as follows: Inhibition of PCSK9 transcription in human HepG2 cells at 5 uM by AlphaLISA method. In kind it is cell-based.
Series [4] is described as follows: Cytotoxicity against human HepG2 cells assessed as cell viability at 20 uM after 24 hrs by CCK8 assay. Format: toxicity, cell-based. Particulars: read-out: Activity. A general note: Formazan colour is commonly taken as a measure of viable cells.
For series [5], the target named is Proprotein convertase subtilisin/kexin type 9 (Homo sapiens) (UniProt Q8NBP7). The series is described as follows: Inhibition of PCSK9 (unknown origin) promoter activity expressed in HEK293 cells co-transfected with SV40 at 5 to 10 uM incubated for 24 hrs by dual luciferase assay. In kind it is cell-based. Particulars: dose 5-10 µM.
For series [6], the system named is HepG2. In words: Induction of LDL uptake in HNF1alpha knockdown human HepG2 cells at 5 uM incubated for 3 hrs under dark condition by DiI-LDL DMEM staining based fluorescence microplate reader assay. In kind it is functional, cell-based.

With `C=C1[C@@H](OC(C)=O)[C@H]2[C@@H](OC(C)=O)[C@](C)(OC(C)=O)C[C@]2(OC(C)=O)C(=O)[C@H](C)/C=C/C(C)(C)C(=O)[C@@H](OC(=O)C(C)C)[C@H]1OC(=O)CC`, the outcome with HepG2 [1] was Active. The figures for the inhibition entry in series [2] and in series [3] were “Dose-Dependent Effect” and 28%, respectively. In addition, the viability at 24 h, 20 µM in series [4] is above 95%.

Turning to `C=C1[C@@H](OC(C)=O)[C@H]2[C@@H](OC(C)=O)[C@](C)(OC(C)=O)C[C@]2(OC(C)=O)C(=O)[C@H](C)/C=C/C(C)(C)C(=O)[C@@H](OC(=O)C(C)C)[C@H]1OC(=O)C(C)C`, in the series on HepG2 [1], the result was Active. Moreover, the inhibition (usually the share of the control response that was lost under treatment) in series [2] is “Dose-Dependent Effect”; in series [3] it was 30.4%. Besides, in series [4], the viability at 24 h, 20 µM was above 95%.

As to `C=C1[C@@H](OC(C)=O)[C@H]2[C@@H](OC(C)=O)[C@@H](C)C[C@]2(OC(C)=O)C(=O)[C@H](C)/C=C/C(C)(C)C(=O)[C@@H](OC(C)=O)[C@H]1OC(C)=O`, in series [3], the inhibition was below 1%.

As for `C=C1[C@@H](OC(C)=O)[C@H]2[C@@H](OC(C)=O)[C@](C)(OC(C)=O)C[C@]2(OC(C)=O)C(=O)[C@H](C)/C=C/C(C)(C)C(=O)[C@@H](OC(C)=O)[C@H]1OC(=O)C(C)C`, in the series on HepG2 [1], the result was Active. For the same molecule, the figures for the inhibition entry in series [2] and in series [3] were “Dose-Dependent Effect” and 22.3%, respectively. In series [4], the viability at 24 h, 20 µM is above 95%.

Regarding `C=C1[C@@H](OC(C)=O)[C@H]2[C@@H](OC(C)=O)[C@](C)(OC(C)=O)C[C@]2(OC(C)=O)C(=O)[C@H](C)[C@]2(C)O[C@H]2C(C)(C)[C@H](OC(C)=O)[C@@H](OC(=O)c2ccccc2)[C@H]1OC(=O)C(C)C`, the inhibition in series [3] worked out at 0.7%.

For `C=C1[C@@H](OC(C)=O)[C@H]2[C@@H](OC(C)=O)[C@](C)(OC(C)=O)C[C@]2(OC(C)=O)C(=O)[C@H](C)[C@]2(C)O[C@H]2C(C)(C)[C@H](OC(C)=O)[C@@H](OC(C)=O)[C@H]1OC(=O)C(C)C`, in series [3], the inhibition stood at 1.2%.

As for `C=C1[C@@H](OC(C)=O)[C@H]2[C@@H](OC(=O)[C@@H](C)CC)[C@@H](C)C[C@]2(OC(C)=O)C(=O)[C@H](C)/C=C/C(C)(C)[C@H](OC(C)=O)[C@@H](OC(C)=O)[C@H]1OC(C)=O`, in series [5], the inhibition entry is “Active”. Moreover, the result in the series with HepG2 [6] and with HepG2 [1] was Active. Besides, the inhibition result in series [2] is “Dose-Dependent Effect”; in series [3], 56.1%. Besides, the viability at 24 h, 20 µM in series [4] is above 95%.
